These results are taken from patent publication US11702450B2, “Proteogenomic-based method for identifying tumor-specific antigens” (UNIVERSITÉ DE MONTRÉAL, priority 2018, dated 2023).

Entries after “also recorded” stand apart in the source; their conditions may differ.

Assay [1] relates to CD8^+ T cells. It is filed as cell-based, C57BL/6 mice.
The test system of assay [2] is EL4 cells. The assay can be described thus: Immunization with TSA-pulsed DCs followed by live EL4 cell challenge and rechallenge. It is filed as in vivo, C57BL/6 mice. The note with it: for mice with prolonged survival after priming / day-150 survival rate: immunized twice with TSA-pulsed DCs, 5×10^5 live EL4 cells i.v. day 0; for outcome of rechallenge with live EL4 cells at day 150: surviving immunized mice rechallenged at day 150. As for the experimental part: Generation of bone marrow-derived dendritic cells (DCs), mouse immunization and EL4 cell injection. Bone marrow—derived DCs were generated as previously described^13a,14a. For mouse immunization, DCs from male C57BL/6 mice were pulsed with 2 μM of the selected peptide for 3 hours, then washed. 8- to 12-week old female C57BL/6 mice were injected i.v. with 10^6 individually peptide-pulsed DCs at day −14 and −7, or with irradiated EL4 cells (10,000 cGy). As negative control, C57BL/6 female mice were immunized with unpulsed DCs. At day 0 and day 150, mice were injected i.v. with 5×10^5 EL4 cells and were monitored for weight loss, paralysis, or tumor outgrowth.

The conditions of assay [3]: literature references 9, 37; cited from earlier work.

As to “HGIRNASFI (listed as Murine cytomegalovirus) [M45, H-2db, reference compound]”, the “frequency of antigen-specific CD8 T cells in naive mice” value (“frequency” for short) in assay [1] is “within range of those observed in previous studies”.
For the sequence “IILEFHSL (listed as Mus musculus) [EL4 TSA]”, in assay [2], the “mice with prolonged survival after priming” value came to 10%. In assay [1], the “frequency” value was “less than one”.
Regarding KAVYNFATC [gp-33, reference compound], the “frequency” value in assay [1] was “within range of those observed in previous studies”.
In the case of “SPSYVYHQF (listed as Mus musculus) [AH1 peptide, aeTSA previously identified on CT26 cells]”, the “antitumor responses and adverse effects” value in assay [3] is “elicits strong antitumor responses devoid of adverse effects”.
With TSYKFESV [B8R, reference compound], in assay [1], the “frequency” value is recorded as “within range of those observed in previous studies”.
Turning to “TVPLNHNTL (listed as Mus musculus) [EL4 TSA]”, in assay [2], the day-150 survival rate entry is on record as “surviving up day 150”, the “mice with prolonged survival after priming” value was determined as 10% and the “outcome of rechallenge with live EL4 cells at day 150” value (from here on “outcome of rechallenge”) was “survived the rechallenge”. In addition, in assay [1], the “frequency” value was “less than one”.
With “VNYIHRNV (VNYXHRNV; VARIANT (4)..(4) Xaa is Ile or Leu; listed as Mus musculus)”, in assay [2], the day-150 survival rate was found to be 20% and the “outcome of rechallenge” value is on record as “not sufficient to protect mice upon rechallenge; also recorded: no significant protection upon rechallenge”. Further, in assay [2] (surviving immunized mice rechallenged with EL4 cells at day 150), the “time to death from leukemia after rechallenge” value was no more than 50 days. In addition, in assay [1], the “frequency” value is recorded as “frequencies similar to those of the viral controls” and the “tetramer^+ CD8 T cells in long-term survivors after rechallenge” value is given as “large population of tetramer^+ cells”.
For the sequence “VNYLHRNV (VNYXHRNV; VARIANT (4)..(4) Xaa is Ile or Leu; listed as Mus musculus)”, the “rank of protection against EL4 challenge” value in assay [2] (immunization with TSA-pulsed DCs) is given as “best protection”. In assay [2], the day-150 survival rate is 100% and the “outcome of rechallenge” value is “survived the rechallenge”. The “frequency” value in assay [1] was “frequencies similar to those of the viral controls”.
